The test system of data set [1] is central apomorphine-induced climbing. Put plainly: Antagonism to central apomorphine-induced climbing (stereotypes) in mice. The class given is in vivo. The settings on record: Mus musculus, po; male mice; 60 minutes before 1 mg/kg s.c. apomorphine HCl; evaluated 10 minutes after apomorphine. An excerpt:
(§1) Profiles of the central sedative pharmacological activity were obtained by Irwin's observational assessment of mouse behavior (Irwin, S.--Psychopharmacologia, Berl., 13, 222, 1968), which also gives an indication of the orientative acute toxicity after 7 days observation, and by antagonism to the central apomorphine-induced stereotypes (climbing) in mice.
For the antagonism to central apomorphine-induced climbing (Protais, P. et al.--Psychopharmacology, 50, 1, 1976), the compounds were orally administered to male mice, in a dose range between 0.25 and 10 mg/kg, 60 minutes before the subcutaneous injection of 1 mg/kg of apomorphine HCl. The antagonism to apormorphine-induced climbing behavior was evaluated 10 minutes after apomorphine administration.

A short description of data set [2]: Orientative acute toxicity (Irwin's observational assessment of mouse behavior, 7 days observation). The settings on record: in vivo, po, after 7 days observation.
Text: as §1

Our source for the ED50 and LD50 values is US4728649A, “3-oxo-piperazin-1-yl-ergolines exhibiting antidopaminergic activity” (Farmitalia Carlo Erba, priority 1985, dated 1988).

Consider `CN1C[C@H](CN2CC(=O)NC(=O)C2)C[C@@H]2c3cccc4[nH]cc(c34)C[C@H]21` [Example 1, 6-Methyl-8β-(3,5-dioxo-piperazin-1-ylmethyl)-ergoline], for which, in data set [1], the ED50 (commonly the dose at which the effect has come halfway, by size or by number of responders) was 4.4 mg/kg. Further, in data set [2], the median lethal dose (LD50) (as a rule, the dose expected to kill half of the subjects tested) at 168 h is 600 mg/kg.

`CN1C[C@H](CN2CC(=O)NC(=O)C2)C[C@@H]2c3cccc4c3c(cn4C)C[C@H]21` [Example 2, 1,6-Dimethyl-8β-(3,5-dioxo-piperazin-1-ylmethyl)-ergoline] displayed an ED50 in data set [1] of 0.9 mg/kg. For the same compound, in data set [2], the median lethal dose (LD50) at 168 h was 300 mg/kg.

Turning to `CN1C(=O)CN(C[C@@H]2C[C@@H]3c4cccc5[nH]cc(c45)C[C@H]3N(C)C2)CC1=O` [Example 3, 6-Methyl-8β-(3,5-dioxo-4-methyl-piperazin-1-ylmethyl)-ergoline], the ED50 in data set [1] came to 2.2 mg/kg. The same compound registered a median lethal dose (LD50) at 168 h in data set [2] of 300 mg/kg.

`CN1C[C@H](CN2CC(=O)NC(=O)C2)C=C2c3cccc4[nH]cc(c34)C[C@H]21` [Example 5, 6-Methyl-9,10-didehydro-8β-(3,5-dioxo-piperazin-1-ylmethyl)-ergoline] registered an ED50 in data set [1] of 0.5 mg/kg. Further, the LD50 at 168 h in data set [2] was determined as 200 mg/kg.
